For 22 compounds, IC50 results are on record in patent publication US7304174B2, “CaSR antagonist” (Japan Tobacco Inc., priority 2003, dated 2007).

The target in this assay is T1, human calcium receptor (Homo sapiens, UniProt P41180).
T1 construct: expressed in transfected cells; host or cells: cell strain derived from rat adrenal, co-transformed with luciferase cDNA
T1 sequence (P41180 20-1078): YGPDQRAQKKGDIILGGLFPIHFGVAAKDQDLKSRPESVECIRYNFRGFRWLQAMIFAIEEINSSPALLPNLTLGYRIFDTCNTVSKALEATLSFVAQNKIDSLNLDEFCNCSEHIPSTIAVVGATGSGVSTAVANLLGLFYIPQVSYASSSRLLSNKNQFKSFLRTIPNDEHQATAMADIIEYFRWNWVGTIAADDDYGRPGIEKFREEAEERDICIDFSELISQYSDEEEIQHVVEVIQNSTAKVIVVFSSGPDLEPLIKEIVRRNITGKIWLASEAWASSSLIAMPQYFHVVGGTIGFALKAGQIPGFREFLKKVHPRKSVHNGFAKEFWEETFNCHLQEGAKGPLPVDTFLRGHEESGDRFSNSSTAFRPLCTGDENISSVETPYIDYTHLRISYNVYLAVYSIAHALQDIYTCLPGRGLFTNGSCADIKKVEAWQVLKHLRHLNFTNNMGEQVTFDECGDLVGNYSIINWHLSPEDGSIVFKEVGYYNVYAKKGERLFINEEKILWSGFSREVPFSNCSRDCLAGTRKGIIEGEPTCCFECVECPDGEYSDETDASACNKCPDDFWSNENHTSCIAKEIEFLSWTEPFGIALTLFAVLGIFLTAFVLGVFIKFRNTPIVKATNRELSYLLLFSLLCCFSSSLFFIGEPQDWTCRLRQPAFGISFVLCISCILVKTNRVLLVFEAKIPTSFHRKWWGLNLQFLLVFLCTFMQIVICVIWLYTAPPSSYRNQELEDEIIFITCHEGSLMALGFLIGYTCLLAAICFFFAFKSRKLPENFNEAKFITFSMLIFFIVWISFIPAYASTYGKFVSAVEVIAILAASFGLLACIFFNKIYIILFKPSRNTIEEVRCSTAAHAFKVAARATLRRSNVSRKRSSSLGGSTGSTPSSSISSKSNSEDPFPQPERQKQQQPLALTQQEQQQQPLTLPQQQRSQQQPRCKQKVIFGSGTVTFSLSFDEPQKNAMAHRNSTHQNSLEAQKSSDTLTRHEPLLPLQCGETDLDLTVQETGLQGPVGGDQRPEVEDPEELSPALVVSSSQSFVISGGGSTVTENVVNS
Put plainly: Evaluation of antagonistic action on calcium receptor using reporter gene (luciferase). The class given is cell-based. The conditions noted are these: transformed rat adrenal derived cells, 5 mM calcium chloride, culture 4 hrs, luciferase activity; read-out: Reporter gene assay (IC50, concentration showing 50% inhibitory rate). Here is the method:
Evaluation of Antagonistic Action on Calcium Receptor Using Reporter Gene
Luciferase cDNA and human calcium receptor cDNA were introduced into a cell strain derived from rat adrenal to transform the cells, and the transformed cells were cultured in a medium (80 μl, F12 medium containing 0.5% dialyzed horse serum and 0.25% dialyzed bovine fetal serum). A dimethyl sulfoxide solution containing a test compound at 0.1-10000 μM was diluted 100-fold with the medium and added to the test compound group at 10 μl per well (dimethyl sulfoxide final concentration 0.1%). In the same manner as in test compound group, dimethyl sulfoxide 100-fold diluted with medium was added to a control group and a blank group. Then, 50 mM calcium chloride-containing medium was added to every well except the blank group at 10 μl per well (final concentration 5 mM). A medium containing 50 mM calcium chloride was added to the control group at 10 μl per well, such that the final calcium concentration of the medium became 5 mM. A medium alone was added to the blank group. After culture for 4 hrs, luciferase substrate was added and the luciferase activity was measured with a photoluminometer. The inhibitory rate (%) was calculated from the obtained measured values according to the following formula.
Based on the results, the concentration (IC50) showing 50% inhibitory rate was determined. The results are shown in the aforementioned Tables 1 to 60.
`Cc1cc(-c2ccccc2[C@@H](C)OC[C@H](O)CNC(C)(C)Cc2ccc(Cl)c(F)c2)ccc1C(=O)O` [Example 1-105]: the IC50 worked out at 9 nM.

For the compound `Cc1cc(-c2ccccc2[C@@H](C)OC[C@H](O)CNC(C)(C)Cc2ccc(Cl)c(F)c2)ccc1C(=O)O` [Example 1-88], the IC50 is 14 nM. For `COc1ccc(CC(C)(C)NC[C@@H](O)CO[C@H](C)c2ccccc2-c2ccc(C(=O)O)c(C(F)(F)F)c2)c(F)c1` [Example 1-29, 2′-[1-[(2R)-3-[[1-(2-fluoro-4-methoxyphenyl)-2-methylpropan-2-yl]amino]-2-hydroxypropoxy]ethyl]-3-(trifluoromethyl)biphenyl-4-carboxylic acid] the value was 82 nM; for `Cc1cc(F)c(CC(C)(C)NC[C@@H](O)CO[C@H](C)c2ccccc2-c2ccc(C(=O)O)c(C)c2)cc1Cl` [Example 1-90, 2′-[1-[(2R)-3-[[1-(5-chloro-2-fluoro-4-methylphenyl)-2-methylpropan-2-yl]amino]-2-hydroxypropoxy]ethyl]-3-methylbiphenyl-4-carboxylic acid], 271 nM; for `COc1ccc(CC(C)(C)NC[C@@H](O)CO[C@H](C)c2ccccc2-c2ccc(C(=O)O)c(C)c2)cc1F` [Example 1-20, 2′-[1-[(2R)-3-[[1-(3-fluoro-4-methoxyphenyl)-2-methylpropan-2-yl]amino]-2-hydroxypropoxy]ethyl]-3-methylbiphenyl-4-carboxylic acid], 40 nM. Next, `Cc1ccc(CC(C)(C)NC[C@@H](O)CO[C@H](C)c2ccccc2-c2ccc(C(=O)O)c(CC(C)C)c2)cc1F` [Example 1-46, 2′-[1-[(2R)-3-[[1-(3-fluoro-4-methylphenyl)-2-methylpropan-2-yl]amino]-2-hydroxypropoxy]ethyl]-3-isobutylbiphenyl-4-carboxylic acid]: 3 nM. For `CC(OC[C@H](O)CNC(C)(C)Cc1ccc2ccccc2c1)c1ccccc1NCc1ccc(C(=O)O)cc1` (stereo partly drawn) [Example 2-19, 4-[[2-[1-[(2R)-3-[[1-(naphthalen-2-yl)-2-methylpropan-2-yl]amino]-2-hydroxypropoxy]ethyl]phenylamino]methyl]benzoic acid] the value was 29 nM. On to `Cc1ccc(CC(C)(C)NC[C@@H](O)CO[C@H](C)c2ccccc2-c2ccc(C(=O)O)c(C)c2)cc1F` [Example 1-16, 2′-[1-[(2R)-3-[[1-(3-fluoro-4-methylphenyl)-2-methylpropan-2-yl]amino]-2-hydroxypropoxy]ethyl]-3-methylbiphenyl-4-carboxylic acid], for which the IC50 is 11 nM. Next, `Cc1ccc(CC(C)(C)NC[C@@H](O)CO[C@H](C)c2ccccc2-c2ccc(C(=O)O)c(N3CCOCC3)c2)cc1F` [Example 1-102, 2′-[1-[(2R)-3-[[1-(3-fluoro-4-methylphenyl)-2-methylpropan-2-yl]amino]-2-hydroxypropoxy]ethyl]-3-morpholinobiphenyl-4-carboxylic acid]: 14 nM; `Cc1ccc(CC(C)(C)NC[C@@H](O)CO[C@H](C)c2ccccc2-c2ccc(C(=O)O)c(C)c2)cc1` [Example 1-22, 2′-[1-[(2R)-3-[[1-(4-methylphenyl)-2-methylpropan-2-yl]amino]-2-hydroxypropoxy]ethyl]-3-methylbiphenyl-4-carboxylic acid]: 12 nM; `CC(OC[C@H](O)CNC(C)(C)Cc1ccc2ccccc2c1)c1ccccc1C=Cc1ccc(C(=O)O)cc1` (stereo partly drawn) [Example 2-9, 4-[2-[2-[1-[(2R)-3-[[1-(naphthalen-2-yl)-2-methylpropan-2-yl]amino]-2-hydroxypropoxy]ethyl]phenyl]vinyl]benzoic acid]: 16 nM. As for `C[C@@H](OC[C@H](O)CNC(C)(C)Cc1ccc(Cl)c(Cl)c1)c1ccccc1-c1ccc(C(=O)O)c(C(F)(F)F)c1` [Example 1-31, 2′-[1-[(2R)-3-[[1-(3,4-dichlorophenyl)-2-methylpropan-2-yl]amino]-2-hydroxypropoxy]ethyl]-3-(trifluoromethyl)biphenyl-4-carboxylic acid], the IC50 came out at 5 nM. For `COC(=O)c1cc(C(=O)OC)cc(-c2ccccc2[C@@H](C)OC[C@H](O)CNC(C)(C)Cc2ccc3ccccc3c2)c1` [Example 1-10, methyl 2′-[1-[(2R)-3-[[1-(naphthalen-2-yl)-2-methylpropan-2-yl]amino]-2-hydroxypropoxy]ethyl]biphenyl-3,5-dicarboxylate], the IC50 came to 29 nM. Next, `Cc1ccc(CC(C)(C)NC[C@@H](O)COC(C)c2ccccc2Oc2ccc(C(=O)O)cc2)cc1F` (stereo partly drawn) [Example 2-7, 4-[2-[1-[(2R)-3-[[1-(3-fluoro-4-methylphenyl)-2-methylpropan-2-yl]amino]-2-hydroxypropoxy]ethyl]phenoxy]benzoic acid]: 17 nM. Next, `Cc1cc(-c2ccccc2[C@@H](C)OC[C@H](O)CNC(C)(C)Cc2ccc(C)c(C(F)(F)F)c2)ccc1C(=O)O` [Example 1-104, 2′-[1-[(2R)-3-[[1-(3-trifluoromethyl-4-methylphenyl)-2-methylpropan-2-yl]amino]-2-hydroxypropoxy]ethyl]-3-methylbiphenyl-4-carboxylic acid]: 28 nM; `Cc1cc(-c2ccccc2[C@@H](C)OC[C@H](O)CNC(C)(C)Cc2cccc(Cl)c2F)ccc1C(=O)O` [Example 1-91, 2′-[1-[(2R)-3-[[1-(3-chloro-2-fluorophenyl)-2-methylpropan-2-yl]amino]-2-hydroxypropoxy]ethyl]-3-methylbiphenyl-4-carboxylic acid]: 28 nM; `CC(OC[C@H](O)CNC(C)(C)Cc1ccc2ccccc2c1)c1ccccc1S(=O)(=O)c1ccc(C(=O)O)cc1` (stereo partly drawn) [Example 2-18, 4-[2-[1-[(2R)-3-[[1-(naphthalen-2-yl)-2-methylpropan-2-yl]amino]-2-hydroxypropoxy]ethyl]phenylsulfonyl]benzoic acid]: 236 nM. For `C[C@@H](OC[C@H](O)CNC(C)(C)Cc1ccc(Cl)c(F)c1)c1ccccc1-c1ccc(C(=O)O)c(C(C)(C)C)c1` [Example 1-100, 2′-[1-[(2R)-3-[[1-(4-chloro-3-fluorophenyl)-2-methylpropan-2-yl]amino]-2-hydroxypropoxy]ethyl]-3-t-butylbiphenyl-4-carboxylic acid] the value was 17 nM; for `Cc1cc(-c2ccccc2[C@@H](C)OC[C@H](O)CNC(C)(C)Cc2ccc3ccccc3c2)ccc1C(=O)O` [Example 1-13, 2′-[1-[(2R)-3-[[1-(naphthalen-2-yl)-2-methylpropan-2-yl]amino]-2-hydroxypropoxy]ethyl]-3-methylbiphenyl-4-carboxylic acid], 15 nM; for `Cc1ccc(CC(C)(C)NC[C@@H](O)CO[C@H](C)c2ccccc2-c2ccc(C(=O)O)c(C)c2)cc1F` [Example 1-108], 14 nM. Regarding `Cc1cc(C(=O)O)ccc1Oc1ccccc1C(C)OC[C@H](O)CNC(C)(C)Cc1ccc(Cl)c(F)c1` (stereo partly drawn) [Example 2-36, 4-[2-[1-[(2R)-3-[[1-(4-chloro-3-fluorophenyl)-2-methylpropan-2-yl]amino]-2-hydroxypropoxy]ethyl]phenoxy]-5-methylbenzoic acid], the IC50 was determined as 13 nM. Next, `Cc1cc(C(=O)O)cc(C)c1Oc1ccccc1C(C)OC[C@H](O)CNC(C)(C)Cc1ccc(Cl)cc1F` (stereo partly drawn) [Example 2-13, 4-[2-[1-[(2R)-3-[[1-(4-chloro-2-fluorophenyl)-2-methylpropan-2-yl]amino]-2-hydroxypropoxy]ethyl]phenoxy]-3,5-dimethylbenzoic acid]: 22 nM.
